Measured values from the NIST ThermoML archive (doi:10.1016/j.jct.2007.05.011).

Experiment: xn = mol fraction of the nth substance listed
Details: 101 kPa, Liquid; for mass density: Vibrating tube method

NCCO.O=CO [2-hydroxyethylammonium formate] + CCO
Details	mass density, 298.15 K [kg/m3]	mass density, 300.65 K [kg/m3]	mass density, 303.15 K [kg/m3]	mass density, 305.65 K [kg/m3]	speed of sound, 295.65 K [m/s]	speed of sound, 298.15 K [m/s]	speed of sound, 300.65 K [m/s]	speed of sound, 303.15 K [m/s]
x2 = 0	1176.49	1174.71	1172.94	1171.16	–	1709	1702.9	1696.8
x2 = 0.058	1166.37	1164.71	1163.06	1161.41	–	1720.4	1715.2	1709.9
x2 = 0.098	1154.38	1152.72	1151.05	1149.39	–	1701.5	1696.1	1690.8
x2 = 0.193	1128.94	1127.25	1125.56	1123.87	–	1659.3	1653.7	1648.2
x2 = 0.296	1103.15	1101.44	1099.72	1098	–	1615.9	1610.2	1604.4
x2 = 0.399	1072.49	1070.73	1068.98	1067.22	–	1563.2	1557.2	1551.2
x2 = 0.5	1037.38	1035.58	1033.79	1031.98	1510.6	1504.3	1498	1491.7
x2 = 0.598	999.182	997.335	995.485	993.634	1448.4	1441.7	1435.1	1428.4
x2 = 0.701	955.767	953.861	951.952	950.042	1381.1	1374.1	1367	1360
x2 = 0.799	906.63	904.657	902.677	900.694	1311	1303.6	1296.1	1288.7
x2 = 0.9	851.045	848.99	846.93	844.863	1237.8	1229.8	1221.9	1214
x2 = 0.95	820.231	818.13	816.023	813.907	1198.5	1190.2	1182	1173.8
